Laboratory results as given in US20030158255A1, “Use of bismuth subgallate in prevention and/or reduction of skin deterioration” (priority 2002, published 2003).

System: keratinocyte cells
Test: Proliferation of keratinocyte (cell count)
Assay type: cell-based
Details: for effect on proliferation of keratinocyte: cell count after 2-12 days of cultivation, FIG. 1
Description: The keratinocyte cells were respectively cultivated with the following groups of agents: (a) 0.7 μg/1 ml, 7 μg/ml, 70 μg/ml and 700 μg/ml of bismuth subgallate; (b) 0.1 μg/ml, 1 μg/ml, 10 μg/ml and […]; and (c) 0.7 μg/ml bismuth subgallate in combination with 0.1 μg/ml borneol, 7 μg/ml bismuth subgallate in combination with 1 μg/ml borneol, 70 μg/ml bismuth subgallate in combination with 10 μg/ml borneol and 700 μg/ml bismuth subgallate in combination with 100 μg/ml borneol. After the cells were cultivated after 2, 4, 6, 8, 10 and 12 days respectively, their count was noted to evaluate the proliferation of them.

Compound: CC1(C)C2CCC1(C)C(O)C2 (stereo not drawn) [borneol]
- effect on proliferation of keratinocyte: no significant effect

Compound: bismuth subgallate
- keratinocyte cell number relative to control (70 μg/ml bismuth subgallate, twelfth day): up to two times of that of control
- effect on proliferation of keratinocyte: significant increase in the proliferation of keratinocyte
